# Results reported in the kinase profiling compilation of Christmann-Franck et al. (2016).
# Columns and labels:
# Assay in all cases: KINOMEscan competition binding
# Conditions in all cases: compound 10.0 µM
# BMPR2 (human) = BMPR2 (human) (UniProt Q13873)
# FER (human) = FER (human) (UniProt P16591)
# EPHA4 (human) = EPHA4 (human) (UniProt P54764)
# CSK (human) = CSK (human) (UniProt P41240)
# LIMK1 (human) = LIMK1 (human) (UniProt P53667)
# PRKAA1 (human) = PRKAA1 (human) (UniProt Q13131)
# TNIK (human) = TNIK (human) (UniProt Q9UKE5)
# NEK4 (human) = NEK4 (human) (UniProt P51957)
# HIPK2 (human) = HIPK2 (human) (UniProt Q9H2X6)
# DAPK2 (human) = DAPK2 (human) (UniProt Q9UIK4)
# AKT3 (human) = AKT3 (human) (UniProt Q9Y243)
# CHEK2 (human) = CHEK2 (human) (UniProt O96017)
# SRC (human) = SRC (human) (UniProt P12931)
# CDC42BPB (human) = CDC42BPB (human) (UniProt Q9Y5S2)
# CASK (human) = CASK (human) (UniProt O14936)
# EIF2AK1 (human) = EIF2AK1 (human) (UniProt Q9BQI3)
# MAP3K12 (human) = MAP3K12 (human) (UniProt Q12852)
# HIPK3 (human) = HIPK3 (human) (UniProt Q9H422)
# STK32B (human) = STK32B (human) (UniProt Q9NY57)
# SRPK1 (human) = SRPK1 (human) (UniProt Q96SB4)
# INSRR (human) = INSRR (human) (UniProt P14616)
# RPS6KB1 (human) = RPS6KB1 (human) (UniProt P23443)
# DCLK3 (human) = DCLK3 (human) (UniProt Q9C098)
# MAP3K6 (human) = MAP3K6 (human) (UniProt O95382)
# CAMK1D (human) = CAMK1D (human) (UniProt Q8IU85)
# MAP4K2 (human) = MAP4K2 (human) (UniProt Q12851)
# MYLK (human) = MYLK (human) (UniProt Q15746)
# ACVRL1 (human) = ACVRL1 (human) (UniProt P37023)
# AURKA (human) = AURKA (human) (UniProt O14965)
# CAMK2D (human) = CAMK2D (human) (UniProt Q13557)
# BRSK2 (human) = BRSK2 (human) (UniProt Q8IWQ3)
# NEK11 (human) = NEK11 (human) (UniProt Q8NG66)
# STK39 (human) = STK39 (human) (UniProt Q9UEW8)
# PRKCQ (human) = PRKCQ (human) (UniProt Q04759)
# PIM1 (human) = PIM1 (human) (UniProt P11309)
# FGFR4 (human) = FGFR4 (human) (UniProt P22455)
# ROS1 (human) = ROS1 (human) (UniProt P08922)
# MAP4K5 (human) = MAP4K5 (human) (UniProt Q9Y4K4)
# AURKC (human) = AURKC (human) (UniProt Q9UQB9)
# NEK9 (human) = NEK9 (human) (UniProt Q8TD19)
# Sequence of HIPK2 (human) (Q9H2X6 whole entry, looked up): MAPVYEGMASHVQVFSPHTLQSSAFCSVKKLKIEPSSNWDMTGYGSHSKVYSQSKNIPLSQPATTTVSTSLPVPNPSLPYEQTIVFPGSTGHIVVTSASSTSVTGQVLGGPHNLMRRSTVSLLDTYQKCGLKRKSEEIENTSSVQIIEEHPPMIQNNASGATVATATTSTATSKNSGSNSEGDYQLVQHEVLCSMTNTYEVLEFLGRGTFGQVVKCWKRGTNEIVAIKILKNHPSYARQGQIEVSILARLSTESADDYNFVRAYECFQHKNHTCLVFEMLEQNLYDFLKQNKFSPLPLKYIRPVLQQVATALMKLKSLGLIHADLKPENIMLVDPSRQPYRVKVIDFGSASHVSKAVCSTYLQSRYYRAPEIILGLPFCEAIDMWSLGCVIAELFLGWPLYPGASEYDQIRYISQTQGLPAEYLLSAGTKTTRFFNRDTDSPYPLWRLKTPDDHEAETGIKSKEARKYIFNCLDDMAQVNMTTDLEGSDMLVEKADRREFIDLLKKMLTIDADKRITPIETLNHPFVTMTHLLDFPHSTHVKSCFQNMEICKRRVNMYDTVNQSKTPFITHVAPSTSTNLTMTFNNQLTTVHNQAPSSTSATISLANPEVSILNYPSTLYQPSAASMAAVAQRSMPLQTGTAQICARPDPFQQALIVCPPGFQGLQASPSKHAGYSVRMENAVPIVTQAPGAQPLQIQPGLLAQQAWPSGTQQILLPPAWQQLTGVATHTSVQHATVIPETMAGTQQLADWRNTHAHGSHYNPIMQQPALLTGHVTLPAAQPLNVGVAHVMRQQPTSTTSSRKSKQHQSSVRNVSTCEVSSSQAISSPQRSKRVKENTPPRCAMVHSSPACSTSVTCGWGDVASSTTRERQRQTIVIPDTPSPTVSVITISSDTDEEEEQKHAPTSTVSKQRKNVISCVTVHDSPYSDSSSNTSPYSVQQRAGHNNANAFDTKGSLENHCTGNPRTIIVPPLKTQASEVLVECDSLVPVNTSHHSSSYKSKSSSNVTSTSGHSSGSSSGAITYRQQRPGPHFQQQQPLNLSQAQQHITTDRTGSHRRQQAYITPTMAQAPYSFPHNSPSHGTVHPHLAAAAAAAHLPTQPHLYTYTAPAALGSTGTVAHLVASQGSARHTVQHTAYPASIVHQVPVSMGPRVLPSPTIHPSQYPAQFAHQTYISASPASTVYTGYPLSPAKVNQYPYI
# Sequence of EPHA4 (human) (P54764 whole entry, looked up): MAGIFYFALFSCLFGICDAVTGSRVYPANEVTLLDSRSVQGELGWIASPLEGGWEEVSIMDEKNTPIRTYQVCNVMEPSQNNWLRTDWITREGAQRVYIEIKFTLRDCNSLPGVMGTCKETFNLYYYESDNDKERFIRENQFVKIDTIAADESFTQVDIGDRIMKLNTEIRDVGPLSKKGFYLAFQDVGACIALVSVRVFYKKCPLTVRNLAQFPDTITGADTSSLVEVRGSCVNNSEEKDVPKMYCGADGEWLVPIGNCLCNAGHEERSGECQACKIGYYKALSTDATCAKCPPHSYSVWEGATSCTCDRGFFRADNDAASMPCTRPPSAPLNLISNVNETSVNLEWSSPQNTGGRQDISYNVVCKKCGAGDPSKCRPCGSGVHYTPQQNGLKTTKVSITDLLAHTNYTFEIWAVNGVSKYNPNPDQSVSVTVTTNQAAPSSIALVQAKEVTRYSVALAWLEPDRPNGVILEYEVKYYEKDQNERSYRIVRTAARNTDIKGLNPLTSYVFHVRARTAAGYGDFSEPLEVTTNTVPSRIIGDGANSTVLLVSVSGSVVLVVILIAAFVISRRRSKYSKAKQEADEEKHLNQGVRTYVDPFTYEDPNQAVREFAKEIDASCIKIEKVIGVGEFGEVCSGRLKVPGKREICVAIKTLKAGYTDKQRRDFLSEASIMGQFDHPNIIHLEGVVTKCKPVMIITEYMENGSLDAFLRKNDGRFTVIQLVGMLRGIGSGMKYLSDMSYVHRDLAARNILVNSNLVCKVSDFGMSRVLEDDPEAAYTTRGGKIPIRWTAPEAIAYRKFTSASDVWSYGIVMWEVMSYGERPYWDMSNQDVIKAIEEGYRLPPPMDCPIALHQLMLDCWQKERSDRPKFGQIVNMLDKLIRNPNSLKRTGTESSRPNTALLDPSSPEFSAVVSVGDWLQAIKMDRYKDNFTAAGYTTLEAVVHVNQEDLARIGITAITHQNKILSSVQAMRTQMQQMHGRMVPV
# Sequence of DAPK2 (human) (Q9UIK4 whole entry, looked up): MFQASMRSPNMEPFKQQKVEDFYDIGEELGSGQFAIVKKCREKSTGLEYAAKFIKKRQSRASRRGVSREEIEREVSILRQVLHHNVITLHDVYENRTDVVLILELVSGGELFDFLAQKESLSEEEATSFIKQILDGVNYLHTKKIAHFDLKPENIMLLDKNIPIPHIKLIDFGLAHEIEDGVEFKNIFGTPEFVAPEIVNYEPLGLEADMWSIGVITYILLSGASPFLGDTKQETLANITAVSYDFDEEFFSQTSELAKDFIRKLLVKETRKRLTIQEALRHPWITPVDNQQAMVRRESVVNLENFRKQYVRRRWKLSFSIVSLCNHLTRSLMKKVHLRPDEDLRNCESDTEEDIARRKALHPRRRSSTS
# Sequence of NEK11 (human) (Q8NG66 whole entry, looked up): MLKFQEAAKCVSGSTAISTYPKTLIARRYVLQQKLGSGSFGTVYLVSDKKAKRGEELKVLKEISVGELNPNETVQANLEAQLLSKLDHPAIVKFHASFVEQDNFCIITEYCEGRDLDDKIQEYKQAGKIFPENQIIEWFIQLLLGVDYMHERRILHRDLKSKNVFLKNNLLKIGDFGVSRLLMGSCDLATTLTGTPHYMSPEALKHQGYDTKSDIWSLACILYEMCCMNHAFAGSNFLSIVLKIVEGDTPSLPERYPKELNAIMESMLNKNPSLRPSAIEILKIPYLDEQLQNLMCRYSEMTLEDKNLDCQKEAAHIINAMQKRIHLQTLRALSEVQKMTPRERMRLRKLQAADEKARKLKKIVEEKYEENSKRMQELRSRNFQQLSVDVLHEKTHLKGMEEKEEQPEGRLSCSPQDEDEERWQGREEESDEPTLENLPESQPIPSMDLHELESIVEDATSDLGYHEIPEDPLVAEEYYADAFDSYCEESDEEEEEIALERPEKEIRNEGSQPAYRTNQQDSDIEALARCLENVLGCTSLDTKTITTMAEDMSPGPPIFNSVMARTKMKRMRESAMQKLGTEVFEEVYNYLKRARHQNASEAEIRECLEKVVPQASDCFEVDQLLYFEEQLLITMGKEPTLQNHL
# Sequence of ACVRL1 (human) (P37023 whole entry, looked up): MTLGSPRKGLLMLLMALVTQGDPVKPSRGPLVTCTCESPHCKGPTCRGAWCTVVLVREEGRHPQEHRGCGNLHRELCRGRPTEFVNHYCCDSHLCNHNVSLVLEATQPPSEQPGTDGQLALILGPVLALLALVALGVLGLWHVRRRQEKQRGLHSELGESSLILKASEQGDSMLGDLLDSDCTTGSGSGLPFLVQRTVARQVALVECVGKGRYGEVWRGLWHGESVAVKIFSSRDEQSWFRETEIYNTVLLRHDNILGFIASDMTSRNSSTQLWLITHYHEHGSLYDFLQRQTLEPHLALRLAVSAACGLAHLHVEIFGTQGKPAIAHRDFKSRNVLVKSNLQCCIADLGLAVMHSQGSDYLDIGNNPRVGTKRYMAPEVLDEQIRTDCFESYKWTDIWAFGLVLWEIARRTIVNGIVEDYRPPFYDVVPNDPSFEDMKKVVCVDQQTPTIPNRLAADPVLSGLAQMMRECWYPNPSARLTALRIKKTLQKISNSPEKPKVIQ
# Sequence of PRKCQ (human) (Q04759 whole entry, looked up): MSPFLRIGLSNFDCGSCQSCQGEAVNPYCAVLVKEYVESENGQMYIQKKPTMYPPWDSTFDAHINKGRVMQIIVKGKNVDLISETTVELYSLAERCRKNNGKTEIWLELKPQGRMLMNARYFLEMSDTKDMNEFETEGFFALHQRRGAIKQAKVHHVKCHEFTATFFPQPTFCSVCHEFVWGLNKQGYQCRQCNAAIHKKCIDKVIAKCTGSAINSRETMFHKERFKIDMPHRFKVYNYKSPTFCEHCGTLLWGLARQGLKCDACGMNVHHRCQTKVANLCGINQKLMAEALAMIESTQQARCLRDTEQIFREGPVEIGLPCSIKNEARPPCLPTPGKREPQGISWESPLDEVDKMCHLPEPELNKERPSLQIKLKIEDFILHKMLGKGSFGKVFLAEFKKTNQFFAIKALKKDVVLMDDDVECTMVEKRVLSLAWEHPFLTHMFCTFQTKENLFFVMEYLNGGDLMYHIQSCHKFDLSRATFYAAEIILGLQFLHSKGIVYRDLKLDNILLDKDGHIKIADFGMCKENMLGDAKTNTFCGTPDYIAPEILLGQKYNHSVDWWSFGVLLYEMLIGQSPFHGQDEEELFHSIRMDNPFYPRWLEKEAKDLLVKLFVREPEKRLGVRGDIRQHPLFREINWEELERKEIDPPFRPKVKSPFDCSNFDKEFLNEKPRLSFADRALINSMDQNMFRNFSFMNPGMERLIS
# Sequence of CSK (human) (P41240 whole entry, looked up): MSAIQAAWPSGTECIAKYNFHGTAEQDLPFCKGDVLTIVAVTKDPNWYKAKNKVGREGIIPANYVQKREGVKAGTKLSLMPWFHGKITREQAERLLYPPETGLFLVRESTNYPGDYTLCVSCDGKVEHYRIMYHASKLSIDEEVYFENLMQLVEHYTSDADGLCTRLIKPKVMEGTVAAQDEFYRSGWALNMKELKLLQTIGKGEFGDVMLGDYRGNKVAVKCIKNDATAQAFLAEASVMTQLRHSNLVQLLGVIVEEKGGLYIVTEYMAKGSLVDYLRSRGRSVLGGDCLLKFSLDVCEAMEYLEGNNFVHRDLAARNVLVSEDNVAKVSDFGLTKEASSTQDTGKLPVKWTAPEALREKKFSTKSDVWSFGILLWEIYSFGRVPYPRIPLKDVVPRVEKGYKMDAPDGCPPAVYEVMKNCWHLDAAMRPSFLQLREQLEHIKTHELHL
Compound,"kinase still bound, per cent of control (BMPR2 (human))","kinase still bound, per cent of control (FER (human))","kinase still bound, per cent of control (EPHA4 (human))","kinase still bound, per cent of control (CSK (human))","kinase still bound, per cent of control (LIMK1 (human))","kinase still bound, per cent of control (PRKAA1 (human))","kinase still bound, per cent of control (TNIK (human))","kinase still bound, per cent of control (NEK4 (human))","kinase still bound, per cent of control (HIPK2 (human))","kinase still bound, per cent of control (DAPK2 (human))","kinase still bound, per cent of control (AKT3 (human))","kinase still bound, per cent of control (CHEK2 (human))","kinase still bound, per cent of control (SRC (human))","kinase still bound, per cent of control (CDC42BPB (human))","kinase still bound, per cent of control (CASK (human))","kinase still bound, per cent of control (EIF2AK1 (human))","kinase still bound, per cent of control (MAP3K12 (human))","kinase still bound, per cent of control (HIPK3 (human))","kinase still bound, per cent of control (STK32B (human))","kinase still bound, per cent of control (SRPK1 (human))",further results
O=c1cc(N2CCOCC2)oc2c(-c3cccc4c3sc3ccccc34)cccc12,83%,100%,82%,100%,100%,100%,100%,100%,100%,90%,98%,100%,90%,88%,100%,100%,90%,92%,95%,100%,"kinase still bound, per cent of control (INSRR (human)): 100%; kinase still bound, per cent of control (RPS6KB1 (human)): 67%; kinase still bound, per cent of control (DCLK3 (human)): 100%; kinase still bound, per cent of control (MAP3K6 (human)): 100%; kinase still bound, per cent of control (CAMK1D (human)): 68%; kinase still bound, per cent of control (MAP4K2 (human)): 100%; kinase still bound, per cent of control (MYLK (human)): 91%; kinase still bound, per cent of control (ACVRL1 (human)): 94%; kinase still bound, per cent of control (AURKA (human)): 98%; kinase still bound, per cent of control (CAMK2D (human)): 80%; kinase still bound, per cent of control (BRSK2 (human)): 100%; kinase still bound, per cent of control (NEK11 (human)): 100%; kinase still bound, per cent of control (STK39 (human)): 100%; kinase still bound, per cent of control (PRKCQ (human)): 100%; kinase still bound, per cent of control (PIM1 (human)): 62%; kinase still bound, per cent of control (FGFR4 (human)): 99%; kinase still bound, per cent of control (ROS1 (human)): 90%; kinase still bound, per cent of control (MAP4K5 (human)): 89%; kinase still bound, per cent of control (AURKC (human)): 100%; kinase still bound, per cent of control (NEK9 (human)): 93%"
COc1cc(C(=O)N2CCC(N3CCN(C)CC3)CC2)ccc1Nc1ncc2c(n1)N(C)c1ccccc1C(=O)N2C,87%,51%,89%,90%,95%,51%,100%,95%,88%,67%,100%,66%,100%,100%,85%,100%,81%,89%,100%,94%,"kinase still bound, per cent of control (INSRR (human)): 97%; kinase still bound, per cent of control (RPS6KB1 (human)): 100%; kinase still bound, per cent of control (DCLK3 (human)): 90%; kinase still bound, per cent of control (MAP3K6 (human)): 100%; kinase still bound, per cent of control (CAMK1D (human)): 69%; kinase still bound, per cent of control (MAP4K2 (human)): 100%; kinase still bound, per cent of control (MYLK (human)): 8.7%; kinase still bound, per cent of control (ACVRL1 (human)): 100%; kinase still bound, per cent of control (AURKA (human)): 1.2%; kinase still bound, per cent of control (CAMK2D (human)): 28%; kinase still bound, per cent of control (BRSK2 (human)): 64%; kinase still bound, per cent of control (NEK11 (human)): 100%; kinase still bound, per cent of control (STK39 (human)): 39%; kinase still bound, per cent of control (PRKCQ (human)): 100%; kinase still bound, per cent of control (PIM1 (human)): 100%; kinase still bound, per cent of control (FGFR4 (human)): 28%; kinase still bound, per cent of control (ROS1 (human)): 12%; kinase still bound, per cent of control (MAP4K5 (human)): 100%; kinase still bound, per cent of control (AURKC (human)): 50%; kinase still bound, per cent of control (NEK9 (human)): 100%"
C=CC(=O)Nc1cc(-n2c(=O)ccc3cnc4ccc(-c5cn[nH]c5)cc4c32)ccc1C,4.6%,100%,97%,100%,100%,96%,47%,83%,48%,57%,100%,87%,100%,97%,58%,100%,76%,48%,100%,39%,"kinase still bound, per cent of control (INSRR (human)): 100%; kinase still bound, per cent of control (RPS6KB1 (human)): 63%; kinase still bound, per cent of control (DCLK3 (human)): 100%; kinase still bound, per cent of control (MAP3K6 (human)): 75%; kinase still bound, per cent of control (CAMK1D (human)): 86%; kinase still bound, per cent of control (MAP4K2 (human)): 9.4%; kinase still bound, per cent of control (MYLK (human)): 70%; kinase still bound, per cent of control (ACVRL1 (human)): 42%; kinase still bound, per cent of control (AURKA (human)): 63%; kinase still bound, per cent of control (CAMK2D (human)): 36%; kinase still bound, per cent of control (BRSK2 (human)): 67%; kinase still bound, per cent of control (NEK11 (human)): 100%; kinase still bound, per cent of control (STK39 (human)): 64%; kinase still bound, per cent of control (PRKCQ (human)): 100%; kinase still bound, per cent of control (PIM1 (human)): 70%; kinase still bound, per cent of control (FGFR4 (human)): 100%; kinase still bound, per cent of control (ROS1 (human)): 100%; kinase still bound, per cent of control (MAP4K5 (human)): 93%; kinase still bound, per cent of control (AURKC (human)): 100%; kinase still bound, per cent of control (NEK9 (human)): 100%"
